B1: FRG: murine monoclonal anti-CHI3L1 antibody raised against amino acid 223-234 of human CHI3L1; heavy chain SEQ ID NO: 13, light chain SEQ ID NO: 14 (antibody, V domains shown)
VH: QIQLVQSGPELKKPGETVKISCKASGYTFTNYGMNWVKQAPGKGLKWMGWINTYTGEPTYADDFKGRFAFSLETSASTAYLQINNLRNEDMSTYFCARLGYGKFYVMDYWGQGTSVTVSS
VL: DVVMTQTPLSLPVSLGDQASISCRSSQSLVHSNGNTYLHWYLQKPGQSPKLLIYKVSNRFSGVPDRFSGSGSGTDFTLKISRVEAEDLGVYFCSQSTHVTWTFGGGTKLEIK

Tests used:
Assay type in all cases: cell-based, SARS-CoV-2
[1] = test system: pseudovirus with alpha, beta or gamma S protein mutations
[2] = test system: pseudovirus with Delta S protein mutations
[3] = test system: pseudoviruses with omicron S protein mutations
[4] = test system: pseudovirus with S protein D614G, E484K, UK, SA, BZ variants

Molecule | rCHI3L1 stimulatory effects on pseudovirus uptake [1] | uptake of pseudovirus in cells treated with and without rCHI3L1 [1] | CHI3L1-stimulated pseudovirus uptake [2] | pseudovirus uptake when exogenous CHI3L1 was not administered [2] | epithelial cell uptake of pseudoviruses [3] | cellular integration of Spike proteins [4] | uptake of pseudovirus [2] | uptake of pseudoviruses [3] | uptake of pseudoviruses in cells treated with and without rCHI3L1 [1]
C[C@H]1O[C@H](O[C@H]2[C@H](O)[C@@H](O)[C@@H](O)[C@H](O)[C@@H]2O)[C@@H](N)C[C@@H]1NC(=N)C(=O)O [Kasugamycin, 2-amino-2-[(2R,3S,5S,6R)-5-amino-2-methyl-6-[(2R,3S,5S,6S)-2,3,4,5,6-pentahydroxycyclohexyl]oxyoxan-3-yl]iminoacetic acid] | markedly decreased | markedly diminished | abrogated | diminished | inhibited | – | – | – | –
rhCHI3L1: recombinant human CHI3L1 (chitinase 3 like 1) protein, from R&D Inc. or generated at Brown University | – | – | – | – | – | stimulated | potent stimulator | potent stimulator | –
B1 | – | markedly diminished | abrogated | diminished | inhibited | – | – | – | markedly diminished

— patent US20230312752A1 (Brown University, priority 2021, published 2023)
